From patent US11821905B2, “Biomarkers of vascular disease” (Arterez, Inc., priority 2015, dated 2023)

Legend:
Format in all cases: in vivo, mouse
C57/BI6 mice [1] = assay: Histology disease score (Oil Red O, plaque, fibrous tissue, inflammation), Example 1; conditions: FIG. 9, gavage 150 μmol/kg, sacrifice days 10, 15, 20
Procedure: For the pilot study, 48 ten week old male C57/BI6 mice were obtained from Jackson Laboratories. Three mice were raised from 6 weeks on a regular diet and served as controls, and the remaining 45 were raised on a 60% fat diet (D12451, DIO series diet, Opensource Diets). For the bacterial dosage test, 16 ten week old male C57/BI6 mice were divided into 4 treatment groups and maintained on a normal diet.
3,3′,4,4′-Tetrachlorobiphenyl (PCB-77) was obtained from Neosyn Laboratories. 100 mg of the dry chemical was suspended in 15.22 ml of corn oil to deliver 150 μmol/kg in 0.2 ml per mouse. Porphyromonas gingivalis 381 (ATCC 33277) was obtained from ATCC. The bacteria were stored frozen prior to use. […] A microplate reader was used to measure the optical density at 600 nm to determine the concentration of bacteria. […]
The hearts were prepared as frozen sections. […] Multiple 10 μm sections at the level of the aortic sinus were analyzed for the presence of oil Red O lipid staining, plaque size, amount of fibrous tissue, and inflammation. The percentage of the lumen occupied by the first three features was calculated using Image Pro Plus. […] The level of inflammation in each section was scored on the following scale: 0=no inflammatory cells observed, 1=few macrophages with no giant cells, 2=foam cells present, 3=foam cells with cholesterol, 4=foam cells, giant cells, and cholesterol present. […]

[2] = system: Hyaluronan Synthase 1 (HAS-1); assay: Hyaluronan Synthase 1 (HAS-1) ELISA on plasma, murine model of atherosclerosis, Example 2; conditions: FIG. 10; high fat diet, PCB on Day 1 and 3, sacrificed at Day 4
From the text: (§1) A novel model of atherosclerosis in mice was developed, using a high fat diet and administration of a polychlorinated biphenyl (3,3′,4,4′-Tetrachlorobiphenyl; PCB-77) that promotes both obesity and atherosclerosis and the additional oral administration of a bacteria responsible for tooth decay, Porphyromonas gingivalis 381 (ATCC 33277). The objective of this study was to examine the association of biomarkers with the murine model of atherosclerosis in mice treated with a strategy to protect and repair endothelial glycocalyx. Eighty-four (84) ten week old male C57/BI6 mice were obtained from Jackson Laboratories. Thirty-two mice were raised from 6 weeks on a regular diet and served as controls, and the remaining mice were raised on a 60% fat diet (D12451, DIO series diet, Opensource Diets). 3,3′,4,4′-Tetrachlorobiphenyl (PCB-77) was obtained from Neosyn Laboratories. The dry chemical was suspended in 15.22 ml of corn oil to deliver 200 μmol/kg in 0.2 ml by gavage per mouse.
(§2) Four test kits were used to analyze the collected plasma samples: Heparan Sulfate ELISA and Hyaluronan Synthase 1 (HAS-1) ELISA (Antibodies-Online), Total Plasminogen Activation Inhibitor-1 (PAI-1) ELISA (Molecular-Innovive) and Syndecan-1 (SDC1) ELISA (USCN, Houston, Tex.). […]

Heparan Sulfate (HS) = assay: Heparan Sulfate ELISA on plasma, murine model of atherosclerosis, Example 2; conditions: FIG. 11; mice treated PCB-77 and Porphyromonas gingivalis
From the text: as §1, §2

Syndecan-1 (SDC1) = Syndecan-1 (SDC1) ELISA on plasma, murine model of atherosclerosis, Example 2; conditions: FIG. 13; mice treated PCB-77 and Porphyromonas gingivalis; high degree of variability
From the text: as §1, §2

C57/BI6 mice [3] = assay: Pathology of arterial wall, murine model of atherosclerosis, Example 2; conditions: FIGS. 14A, 14B; positive control group (High fat diet, PCB)
From the text: as §1
The mice were sacrificed on days 4, 11, or 18 according to the experimental plan (three each from groups). The animals were anesthetized by intraperitoneal injection of 90 mg/kg Ketamine and 8 mg/kg Xylazine, and Isoflurane gas anesthesia. Blood was collected by retro-orbital bleeding or from the heart and mixed with 50 mg/ml heparin to prevent clotting. […]

SMILES: Clc1ccc(-c2ccc(Cl)c(Cl)c2)cc1Cl [PCB-77, 3,3′,4,4′-Tetrachlorobiphenyl]
- average disease scores for each group and time point (inflammation and plaque) (C57/BI6 mice [1]): most significant risk factor to producing inflammation and plaque
- HAS-1 levels [2]: highest HAS-1 levels
- Heparan Sulfate (HS) level (Heparan Sulfate (HS)): elevation in HS
- SDC-1 level (Syndecan-1 (SDC1)): elevation in SDC-1
- pathology of arterial wall (C57/BI6 mice [3]): presence of a pathology consistent with plaque
